Article PMC11040352, “CD38‐Specific Gallium‐68 Labeled Peptide Radiotracer Enables Pharmacodynamic Monitoring in Multiple Myeloma with PET” (Advanced Science, 2024)

Tests used:
[1] = biological target: T1, recombinant human CD38 protein (Homo sapiens, UniProt P28907); experiment: Affinity measurement by surface plasmon resonance (SPR), human CD38; assay type: binding
T1 construct: purchased R&D systems 2404-AC
Method: The affinity of AJ206 for hCD38 and mCD38 recombinant proteins were evaluated by SPR. The experiments were conducted using a Biacore T200 instrument with a CM5 chip at 25 °C. The ligands used were His‐Tagged human CD38 (R&D systems, catalog # 2404‐AC, 43 kDa, 0.5 mg mL^−1 stock concentration) and mouse CD38 proteins (R&D systems, catalog # 4947‐AC, 40 kDa, 1.81 mg mL^−1 stock concentration), which were immobilized onto the CM5 chip. AJ206 (2089.2 Da, 10 × 10^−3 M stock concentration) was used as the analyte, which flowed over the ligand immobilized surface. FC2 was used as the experimental flow cell, while FC1 served as the reference. Anti‐His antibody (1 mg mL^−1 stock concentration) was immobilized on both FC1 and FC2 using standard amine coupling chemistry. The immobilization running buffer used was PBS‐P (20 × 10^−3 M phosphate buffer pH 7.4, 137 × 10^−3 M NaCl, 2.7 × 10^−3 M KCl, 0.05% v/v surfactant P20). Human CD38 was captured onto FC2 at a level of ≈860 RU, with a 1:20 dilution and 25 µg mL^−1 diluted concentration in PBS‐P. Mouse CD38 was captured onto FC4 at a level of 1360 RU, with a 1:50 dilution and 36.2 µg mL^−1 diluted concentration in PBS‐P. The theoretical R max values were calculated based on the captured response values and are presented in Table 2 , assuming a 1:1 interaction mechanism. […]

[2] = test system: MM cell lines (U266, RPMI8226, MM1S, and MOLP8); experiment: ATRA treatment, flow cytometry of CD38 surface expression; assay type: cell-based, human; conditions: four MM cell lines, ATRA 48 h
Method: To evaluate CD38 surface expression, cells (1 × 10^6) were stained with PE‐labelled anti‐human CD38 monoclonal antibody (clone HB‐7, BioLegend Cat # 356604) in FACS buffer (0.5% FBS with 2 mM EDTA) for 30 min on ice. After washing and resuspending in FACS buffer, data were acquired on a BD Accuri C6 plus flow cytometer and analyzed using FlowJo software. Receptor density measurements were performed using Quantibrite Beads (BD Biosciences, cat #340495), which contain four levels of phycoerythrin (PE) per bead. Gates were drawn on low, medium low, medium high, and high PE binding beads, and the geometric mean from these populations was correlated with the lot‐specific PE molecule/bead on a logarithmic scale. This correlation was used to translate cell population geometric mean to receptor/cell for the respective cell type. To evaluate the pharmacodynamic effects of ATRA therapy on MM cells, U266, RPMI8226, MM1S, and MOLP8 cells were seeded at a concentration of 0.5 million in 500 µL per well in triplicates in a six‐well plate. A 200 × 10^−9 M working solution of all‐trans retinoic acid (ATRA, Sigma‐Aldrich #554720) was prepared by diluting in culture media. Next, 500 µL of the working solution was added to each well, and the cells were incubated for 48 h at 37 °C in a 5% CO2 atmosphere. […]

[3] = test system: MM cell lines (U266, RPMI8226, MM1S, and MOLP8); experiment: ATRA treatment, in vitro uptake of [^68Ga]Ga‐AJ206; assay type: cell-based, human; conditions: ATRA treated cells compared to control treatment
Method: In vitro binding assays were conducted to determine the binding of [^68Ga]Ga‐AJ206 to U266, RPMI8226, MM1S, and MOLP8 cells. Approximately 1 µCi of [^68Ga]Ga‐AJ206 was incubated with 1 × 10^6 cells in 100 µL of culture media for 60 min at 4 °C. After incubation, cells were washed three times with ice‐cold PBS containing 0.1% tween‐20 and counted on an automated gamma counter (1282 Compugamma CS, Pharmacia/LKB Nuclear, Inc., Gaithersburg, MD). […] All cellular uptake studies were performed in quadruplicate for each cell line and repeated three times.
To evaluate the pharmacodynamic effects of ATRA therapy on MM cells, U266, RPMI8226, MM1S, and MOLP8 cells were seeded at a concentration of 0.5 million in 500 µL per well in triplicates in a six‐well plate. A 200 × 10^−9 M working solution of all‐trans retinoic acid (ATRA, Sigma‐Aldrich #554720) was prepared by diluting in culture media. Next, 500 µL of the working solution was added to each well, and the cells were incubated for 48 h at 37 °C in a 5% CO2 atmosphere. After incubation, cells were transferred to FACS tubes, medium was removed by centrifugation, and the cells were resuspended in FACS buffer for flow cytometry and in vitro binding studies, following the same protocol as previously described.

PDX tumors = experiment: PET imaging of patient‐derived xenografts (PDXs), incl. before and after ATRA; assay type: in vivo, NSG mice; conditions: PDX mice, oral ATRA 500 µg per day for 3 d, compared to pre‐treatment
Method: To establish PDX models, immune‐deficient NSG male mice (NOD/Shi‐scid IL‐2rgnull), aged 6–8 weeks, were employed after being irradiated at an absorbed dose of 200 cGy. PCL cells, sourced from two patients and anonymized, were obtained from Dr. Gocke's laboratory. Under sterile conditions, the cells were thawed and treated with DNAse at a concentration of 20 µg mL^−1. After cell counting, 30 000 cells were subjected to flow cytometry analysis to assess CD38 expression. The remaining cells were subcutaneously inoculated at a concentration of 5 × 10^6 cells in 100 µL of a solution comprising 60% Matrigel Basement Matrix (Corning 356230) diluted with HBSS. The animals were included in the experiments once the PDX volumes reached tumor volumes of 100–200 mm^3.
Mice bearing flank tumors and disseminated disease were injected intravenously with [^68Ga]Ga‐AJ206 and PET images were acquired 60 min after injection of the radiotracer. […] PET images were quantified by drawing ROI on tissues using Amide 1.0.6 and reported as %ID/cc.
To assess the pharmacodynamics of ATRA‐induced CD38 expression in vivo, mice bearing PDX tumors (n = 6) were subjected to image using [^68Ga]Ga‐AJ206 to quantify CD38 expression prior to treatment. […] All images were analyzed using AMIDE software with standard ROI analysis techniques.

T1 sequence (P28907 whole entry): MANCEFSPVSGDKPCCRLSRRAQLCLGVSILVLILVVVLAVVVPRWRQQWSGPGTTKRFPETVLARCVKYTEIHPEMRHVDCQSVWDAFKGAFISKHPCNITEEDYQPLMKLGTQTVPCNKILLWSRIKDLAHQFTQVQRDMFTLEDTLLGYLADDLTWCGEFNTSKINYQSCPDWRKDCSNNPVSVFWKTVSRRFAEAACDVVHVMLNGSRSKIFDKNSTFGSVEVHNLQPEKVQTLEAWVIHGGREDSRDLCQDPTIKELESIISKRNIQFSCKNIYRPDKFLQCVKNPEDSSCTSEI

CC[C@H](C)[C@@H]1NC(=O)[C@@H]2CCCN2C(=O)[C@H](Cc2ccccc2)NC(=O)[C@H](CC(=O)O)NC(=O)[C@H](C)NC(=O)[C@@H]2CSCc3cc(cc(c3)CSC[C@H](NC(=O)[C@H](C)NC(=O)CCOCCOCCOCCNC(=O)CN3CCN(CC(=O)O)CCN(CC(=O)O)CC3)C(=O)N[C@@H](C(C)C)C(=O)N3CCC[C@H]3C(=O)N2)CSC[C@@H](C(N)=O)NC(=O)[C@H](Cc2ccc(O)cc2)NC(=O)[C@H](Cc2c[nH]c3ccccc23)NC1=O [AJ206]
Kd ([1]; hCD38, read-out: dissociation constant (K D)): 19.1 ± 0.99 nM | koff ([1]; recombinant human CD38, mean ± SEM (n = 2), read-out: Koff (1/s) x10^-4): 0.0006 ± 0.000121 s⁻¹

CC1=C(/C=C/C(C)=C/C=C/C(C)=C/C(=O)O)C(C)(C)CCC1 [ATRA, all‐trans retinoic acid]
change of CD38 expression [2]: increased CD38 expression | change of [^68Ga]Ga‐AJ206 radioactivity uptake in treated cells [3]: significant increase | change of [^68Ga]Ga‐AJ206 radioactivity uptake in tumors (PET) (PDX tumors): significant increase
